One assay concerns the target T1, hTRPC5 (Homo sapiens, UniProt Q9UL62).
T1 sequence (Q9UL62 1-973): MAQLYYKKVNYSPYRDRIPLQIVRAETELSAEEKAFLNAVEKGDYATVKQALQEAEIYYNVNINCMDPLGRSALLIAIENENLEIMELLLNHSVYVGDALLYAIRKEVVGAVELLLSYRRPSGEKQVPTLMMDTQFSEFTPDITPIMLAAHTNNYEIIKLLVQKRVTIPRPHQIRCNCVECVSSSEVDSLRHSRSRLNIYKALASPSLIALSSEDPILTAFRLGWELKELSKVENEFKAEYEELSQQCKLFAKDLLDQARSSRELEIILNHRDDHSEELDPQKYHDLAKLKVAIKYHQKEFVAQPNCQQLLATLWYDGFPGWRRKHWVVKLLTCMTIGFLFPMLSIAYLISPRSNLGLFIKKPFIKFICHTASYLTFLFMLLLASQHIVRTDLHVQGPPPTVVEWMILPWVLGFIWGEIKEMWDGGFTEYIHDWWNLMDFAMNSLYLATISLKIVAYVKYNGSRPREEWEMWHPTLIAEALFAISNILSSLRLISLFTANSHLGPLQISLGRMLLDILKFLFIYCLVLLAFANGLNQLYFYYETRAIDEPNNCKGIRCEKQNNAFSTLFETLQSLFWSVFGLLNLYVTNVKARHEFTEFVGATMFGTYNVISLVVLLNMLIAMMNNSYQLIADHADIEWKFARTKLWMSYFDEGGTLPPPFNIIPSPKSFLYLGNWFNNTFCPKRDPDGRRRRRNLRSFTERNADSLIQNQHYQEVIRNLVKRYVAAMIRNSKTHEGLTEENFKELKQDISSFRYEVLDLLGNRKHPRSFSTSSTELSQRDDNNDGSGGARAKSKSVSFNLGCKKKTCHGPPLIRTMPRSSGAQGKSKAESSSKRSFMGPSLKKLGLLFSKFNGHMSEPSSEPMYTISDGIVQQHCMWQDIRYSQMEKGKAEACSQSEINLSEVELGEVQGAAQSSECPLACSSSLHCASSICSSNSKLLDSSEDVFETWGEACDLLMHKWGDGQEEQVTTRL
Kind of assay: Patch clamp selectivity, hTRPC5. It counts as cell-based. The procedure: Data for TRPA1 inhibition and the selectivity of TRPA1 inhibition was obtained by this method for the compound of Formula (Ia) and included in Table 1 and Table 2. All currents were recorded in whole-cell configuration using EPC-9 and EPC-10 amplifiers and Patchmaster software (HEKA). […] The standard pipette solution consisted of 140 mM CsAsp, 10 mM EGTA, 10 mM HEPES, 2.27 mM MgCl2, 1.91 mM CaCl2, 4 mM MgATP, and 0.1-0.3 mM Na2GTP, with pH adjusted to 7.2 with CsOH. In addition, a solution containing 145 mM CsCl, 10 mM HEPES, 10 mM EGTA and 1 mM MgCl2 (pH 7.2 adjusted with CsOH) can be used. The standard bath solution contained 150 mM NaCl, 10 mM HEPES, 10 mM glucose, 4.5 mM KCl, 1 mM EGTA, 3 mM MgCl2, with pH adjusted to 7.4 with NaOH. In some instances, 2 mM CaCl2 was added in place of EGTA and the concentration of MgCl2 was reduced to 1 mM.
Data were collected either by continuous recordings at −60 mV or by applying voltage ramps from a holding potential of 0 mV every 4 s. […] Inward and outward currents were analyzed from the ramps at −80 and 80 mV, respectively. […]
Solutions were switched using a gravity-fed continuous focal perfusion system. […] Temperatures were confirmed using a thermistor (Warner Instruments, TA-29), with temperatures at the recorded cell estimated to be within +/−2° C. of those reported. […]
(Patch clamp records ionic current or voltage across a cell membrane.)

Assay [1] concerns incisional spontaneous pain (guarding). Nature of the assay: Surgical incision (Brennan) pain behavior rodent model. Type of assay: in vivo, rat. The procedure: The compound of Formula (Ia) is also active in rodent models of pain in vivo induced by incision of the plantar surface of the hind paw (i.e., the “Brennan Surgical Model”), as described in Example 7. […] Thirty (30) mg/kg of the compound of Formula (Ia) delivered intraperitoneally (2 doses of 15 mg/kg before and immediately after the surgery) reduces spontaneous pain for up to 2 hours after surgery (FIG. 4). The compound of Formula (Ia), the comparator compound of Formula (III) and ketoprofen were tested by the incisional pain test method reported in Brennan et al., Pain, 1996 March; 64(3):493-501 incorporated herein by reference in its entirety. Briefly, in rats under anesthesia, a 1 cm incision through skin and underlying muscle was made in the bottom of one hind paw. The incision was sutured closed and the animals allowed to regain consciousness in their home cage before being placed on a special mesh rack. The blinded observer subjectively assessed and recorded each animal's pain score every 5 minutes for 1 hour. Pain scores were assigned as follows: Score of 0=Injured paw was held flat on the rack and was bearing weight (=uninjured paw); 1=Injured paw was slightly lifted from the rack but was bearing some weight; 2=Injured paw was flat but was bearing no weight, or heel was lifted high off the rack with only toes touching. At the end of each hour, pain scores were added up and the final score recorded ([…]). In a typical study the efficacy of the drug treatment was determined by comparing the cumulative guarding scores at 1-2 and 3-4 hours following surgical injury to the cumulative guarding scores of animals that received the vehicle.

“Also recorded” adds a separate entry of the source.

As a reminder, the IC50 is the midpoint of a concentration-inhibition curve. Read a low IC50 as greater potency in that assay. Consider `C[C@H]1CCCN1c1ncc(-c2cccc(NC(=O)Cn3cnc4c3c(=O)n(C)c(=O)n4C)n2)cn1` [Formula (Ia)], for which, at hTRPC5, the “Fold Selectivity Compared to TRPA1” value is >100 fold. At hTRPC5 (80 micromolar LaCl3, Inward (−80 mV)), the IC50 is > 10 µM. Also, the “time after surgery for which spontaneous pain is reduced” value in assay [1] (30 mg/kg intraperitoneally (2 doses of 15 mg/kg before and immediately after the surgery)) is reported as “up to 2 hours”; in assay [1] (60 mg/kg intraperitoneally (2 doses of 30 mg/kg before and immediately after the surgery)), “up to 4 hours”. In addition, in assay [1] (60 mg/kg i.p. versus ketoprofen 2 doses of 2 mg/kg intraperitoneally), the “reduction of spontaneous pain compared with ketoprofen” value was “equivalent to ketoprofen; also recorded: better than ketoprofen”.
